Assays:
[1] = biological target: T1, rat luteinizing hormone receptor (rLHR) (Rattus norvegicus, UniProt P16235); assay: Intracellular cAMP in HEK293T cells transiently expressing rLHR, induced by bLH; type: cell-based; settings: 500 ng/ml bLH, 1 h post-induction, rLHR expressed, vs non-induced cells
T1 construct: Full-length cDNAs encoding the LHRs of rat (r) and bovine (b) origin; expressed in transfected cells; host or cells: HEK293T, transient transfection with pLEN-rLHR
Description: HEK293T cells were transiently transfected for constitutive bLHR or rLHR expression. 48 hours post-transfection the cells were induced by the addition of 500 ng/ml bLH. The intracellular cAMP-levels were determined 1 h post-induction. […] (□) no bLH, (▪) 500 ng/mL bLH.
Full-length cDNAs encoding the LHRs of rat (r) and bovine (b) origin were cloned under control of the strong constitutive human cytomegalovirus promoter (PCMV) as previously described [Kawate N, Tamada H, Inaba T, Sawada T, Journal of Reproduction and Development 2002; 48:8; Ulaner G A, Chuang J, Lin W, Woodbury D, Myers R V, Moyle W R, J Endocrinol 1999; 163:289-97]. The expression vectors were transiently transfected into HEK293T cells. The functionality of the expressed LHRs was determined 48 hours post-transfection by assaying the intracellular cAMP increase in response to the presence of bLH (FIG. 7). […] However, when the rLHR was expressed the detected cAMP-level increased to 29-fold level of the non-induced cells. […]
The intracellular cAMP production of cells was quantified using the cAMP Fluorescence Polarization (FP) Biotrak Immunoassay System (GE Healthcare Bio-Sciences GmbH, Otelfingen, Switzerland, Cat No. RPN3595) according to the manufacturer's protocol. The expression of firefly luciferase was determined with the Tropix Luciferase Assay Kit (Applied Biosystems, Bedford, USA, Cat No. BC100L). […]

rLHR = rLHR (Rattus norvegicus, UniProt P16235); assay: bLH-dependent disruption of CS/pDADMAC microcapsules containing CK04 cells transfected with pCK71; type: cell-based; design: Full-length cDNAs encoding the LHRs of rat (r) and bovine (b) origin; expressed in transfected cells; host or cells: CK04: HEK293T stably cotransfected with pLEN-rLHR and pZeoSV2(+), clone 6; settings: 500 ng/ml bLH, 24 hours post-induction
Description: (A) Phase-contrast photomicrographs of CS/pDADMAC encapsulated CK04 cells transiently transfected for PCRE controlled cellulase expression (pCK71, PCRE-cellulase-pA). The microcapsules were cultured in the absence or presence of 500 ng/ml bLH. In the presence of bLH the capsules were disrupted by the induced expression of cellulase whereas the non-induced capsules remained intact. Arrows indicate the disrupted capsules.
(B) Quantification of microcapsule disruption. Per sample approximately 150 capsules were counted and the amount of capsule disruption was calculated. 24 hours post-induction 98% of the capsules were disrupted by the induced cellulase. […]
Cells were encapsulated using the Inotech Encapsulator Research Unit IE-50R (Inotech Biotechnologies Ltd, Basel, Switzerland). […] The cells were counted using a Casy Counter (Scharfe Systems, Reutlingen, Germany) and 1×10^6 cells were resuspended in sodium […] sulfate solution (2% (w/v) in PBS, CS, Euroferm, Erlangen, Germany, Batch-No: FCY-06A) and aseptically encapsulated according to the standard protocol using the following settings: 0.2 mm nozzle with a nozzle vibration frequency of 1250 Hz, 20 ml syringe at a flow rate of 410 units, voltage for bead dispersion 1.15 kV. […]

Chain of rLHR (P16235 27-700): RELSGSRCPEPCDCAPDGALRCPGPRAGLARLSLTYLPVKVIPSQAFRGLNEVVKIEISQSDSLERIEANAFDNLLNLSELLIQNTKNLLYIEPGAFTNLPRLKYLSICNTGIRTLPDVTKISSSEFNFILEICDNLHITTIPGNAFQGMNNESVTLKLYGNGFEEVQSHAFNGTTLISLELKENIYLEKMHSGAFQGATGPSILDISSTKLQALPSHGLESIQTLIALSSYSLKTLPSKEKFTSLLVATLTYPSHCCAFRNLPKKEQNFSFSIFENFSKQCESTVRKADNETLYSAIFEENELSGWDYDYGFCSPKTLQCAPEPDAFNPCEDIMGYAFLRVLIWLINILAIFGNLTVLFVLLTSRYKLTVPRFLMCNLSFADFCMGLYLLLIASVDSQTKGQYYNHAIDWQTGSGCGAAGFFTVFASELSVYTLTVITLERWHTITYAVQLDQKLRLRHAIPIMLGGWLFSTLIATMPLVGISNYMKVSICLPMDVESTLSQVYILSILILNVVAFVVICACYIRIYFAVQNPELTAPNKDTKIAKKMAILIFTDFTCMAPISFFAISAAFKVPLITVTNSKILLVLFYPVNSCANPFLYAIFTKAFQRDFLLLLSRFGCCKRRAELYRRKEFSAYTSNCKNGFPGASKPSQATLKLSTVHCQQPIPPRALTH
T1 sequence (P16235 27-700): as above

bovine luteinizing hormone [bLH] was tested, and the “increase in intracellular cAMP” value [1] was 29 fold and the disrupted capsules (rLHR) was 98%.

— patent publication US8506950B2, “Degradable microcapsules” (ETH Zurich, priority 2008, dated 2013)
